This series in a line: Mouse liver microsome (MLM) stability. Type of series: in vitro ADME. As to the method: A first pharmacokinetic study was performed in microsomes of mice mouse liver microsomes, MLM) by a commercial contract research organization. The studies were performed according to Obach, R. S et al. (1997) J. Pharmacol. Exp. Ther., 283: 46-58, which is incorporated herein by reference.
(Microsomes from liver hold many membrane-bound enzymes, among them those of drug oxidation.)
With `C[C@H](CCc1ccc(O)c(OC(C)(C)C)c1)N1Cc2ccc(S(C)(=O)=O)cc2C1` [compound 63], the “Mouse liver microsomes, MLM t½” value is on record as 31 min.

Turning to `COc1cc2c(cc1OC)CN([C@@H](C)CCc1ccc(Cl)c(Cl)c1)C2` [compound 20], the “Mouse liver microsomes, MLM t½” value is 43 min.

For `COc1cc(CCC(C)(C)N2Cc3cccc(C(=O)N4CCOCC4)c3C2)ccc1O` [compound 80], the “Mouse liver microsomes, MLM t½” value turned out to be 45 min.

Regarding `C[C@H](CCc1ccc(Cl)c(Cl)c1)N1Cc2ccc(C(F)(F)F)cc2C1` [compound 4], the “Mouse liver microsomes, MLM t½” value came out at 40 min.

With `CC(C)COc1cc(CCC(C)(C)N2Cc3cccc(F)c3C2)ccc1O` [compound 88], the “Mouse liver microsomes, MLM t½” value is on record as 28 min.

Take `COc1cc(CCC(C)(C)N2Cc3cccc(C(=O)N4CCN(C)CC4)c3C2)ccc1O` [compound 82]: the “Mouse liver microsomes, MLM t½” value worked out at 27 min.

Regarding `COc1cc(CC[C@@H](C)N2Cc3cc(Cl)c(Cl)cc3C2)ccc1O` [compound 3], the “Mouse liver microsomes, MLM t½” value was determined as 21 min.

Regarding `COc1cc(CC[C@@H](C)N2Cc3ccc(Cl)cc3C2)ccc1O` [compound 1], the “Mouse liver microsomes, MLM t½” value turned out to be 11 min.

Consider `Cc1ccc2c(c1)CN([C@H](C)CCc1ccc(Cl)c(Cl)c1)C2` [compound 13], for which the “Mouse liver microsomes, MLM t½” value was 3 min.

For the molecule `COc1cc(CCC(C)(C)N2Cc3cc4c(cc3C2)OCO4)ccc1OCCO` [compound 47], the “Mouse liver microsomes, MLM t½” value is given as 91 min.

For the molecule `COc1cc(CC[C@@H](C)N2Cc3cccc(S(C)(=O)=O)c3C2)ccc1O` [compound 65], the “Mouse liver microsomes, MLM t½” value is reported as 41 min.

`CC(C)Oc1ccc(CCC(C)(C)N2Cc3ccc(F)cc3C2)cc1OC(C)C` [compound 42]: the “Mouse liver microsomes, MLM t½” value was found to be 14 min.

On to `CC(C)(CCc1ccc(F)cc1)N1Cc2ccc(F)cc2C1` [compound 35], for which the “Mouse liver microsomes, MLM t½” value worked out at 9 min.

As to `COc1cc2c(cc1OC)CN(C(C)(C)CCc1ccc(F)cc1)C2` [compound 34], the “Mouse liver microsomes, MLM t½” value is given as 46 min.

Turning to `C[C@H](CCc1ccc(O)c(OC(C)(C)C)c1)N1Cc2cccc(F)c2C1` [60B], the “Mouse liver microsomes, MLM t½” value stood at 8 min.

For `C[C@H](CCc1ccc(Cl)c(Cl)c1)N1Cc2cccc(F)c2C1` [compound 9], the “Mouse liver microsomes, MLM t½” value amounted to 12 min.

For `C[C@H](CCc1ccc(F)cc1)N1Cc2ccc(F)cc2C1` [compound 22], the “Mouse liver microsomes, MLM t½” value is 7 min.

As to `COc1ccc2c(c1)CN([C@H](C)CCc1ccc(Cl)c(Cl)c1)C2.Cl` [compound 15], the “Mouse liver microsomes, MLM t½” value came to 15 min.

As for `COc1cc(CC[C@@H](C)N2Cc3ccc(C(F)(F)F)cc3C2)ccc1O` [compound 2], the “Mouse liver microsomes, MLM t½” value is 28 min.

As to `C[C@H](CCc1ccc(OC(=O)N(C)C)c(OC(F)(F)F)c1)N1Cc2ccc(F)cc2C1` [compound 43], the “Mouse liver microsomes, MLM t½” value is listed as 5 min.

Turning to `CC(C)(C)Oc1cc(CCC(C)(C)N2Cc3cccc(S(C)(=O)=O)c3C2)ccc1O` [compound 66], the “Mouse liver microsomes, MLM t½” value is on record as 10 min.

Regarding `COc1cc(CCC(C)(C)N2Cc3ccc(F)cc3C2)ccc1OC(=O)N(C)C` [compound 50], the “Mouse liver microsomes, MLM t½” value is on record as 33 min.

For `COc1cc(CC[C@@H](C)N2Cc3cc4c(cc3C2)OCO4)ccc1O` [compound 6], the “Mouse liver microsomes, MLM t½” value was determined as 20 min.

Turning to `C[C@H](CCc1ccc(O)c(OC(F)(F)F)c1)N1Cc2cc3c(cc2C1)OCO3` [compound 24], the “Mouse liver microsomes, MLM t½” value was found to be 5 min.

Regarding `C[C@H](CCc1ccc(O)c(OC(C)(C)C)c1)N1Cc2c(F)ccc(F)c2C1` [60A], the “Mouse liver microsomes, MLM t½” value was determined as 5 min.

As for `C[C@H](CCc1ccc(Cl)c(Cl)c1)N1Cc2cc(Cl)c(Cl)cc2C1` [compound 5], the “Mouse liver microsomes, MLM t½” value turned out to be 53 min.

As for `COc1cc(CCC(C)(C)N2Cc3cccc(C(=O)N(C)CCN(C)C)c3C2)ccc1O` [compound 81], the “Mouse liver microsomes, MLM t½” value is 88 min.

As to `CC(C)Oc1cc(CCC(C)(C)N2Cc3cc4c(cc3C2)OCO4)ccc1O` [compound 29], the “Mouse liver microsomes, MLM t½” value turned out to be 6 min.

Turning to `CC(C)(CCc1ccc(O)c(OC(F)(F)F)c1)N1Cc2cccc(S(C)(=O)=O)c2C1` [compound 67], the “Mouse liver microsomes, MLM t½” value is listed as 39 min.

Consider `COC[C@H](CCc1ccc(Cl)c(Cl)c1)N1Cc2ccc(F)cc2C1` [compound 46], for which the “Mouse liver microsomes, MLM t½” value is on record as 5 min.

`COc1cc(CCC(C)N2Cc3ccc4ccccc4c3C2)ccc1O.Cl` (stereo not drawn) [compound 17]: the “Mouse liver microsomes, MLM t½” value is on record as 10 min.

Regarding `CC(C)Oc1ccc(CC[C@@H](C)N2Cc3cc4c(cc3C2)OCO4)cc1OC(C)C` [compound 40], the “Mouse liver microsomes, MLM t½” value stood at 6 min.

In the case of `C[C@H](CCc1ccc(Cl)c(Cl)c1)N1Cc2ccc3ccccc3c2C1` [compound 19], the “Mouse liver microsomes, MLM t½” value came out at 25 min.

Regarding `COc1cc(CCC(C)(C)N2Cc3cccc(S(C)(=O)=O)c3C2)ccc1O` [compound 64], the “Mouse liver microsomes, MLM t½” value came to 52 min.

`C[C@H](CCc1ccc(OC(=O)N(C)C)c(OC(F)(F)F)c1)N1Cc2cccc(F)c2C1` [compound 41]: the “Mouse liver microsomes, MLM t½” value amounted to 9 min.

On to `COc1cc2c(cc1OC)CN([C@H](C)CCc1ccc(Cl)c(Cl)c1)C2` [compound 11], for which the “Mouse liver microsomes, MLM t½” value came out at 61 min.

Turning to `CC(C)COc1cc(CCC(C)(C)N2Cc3cccc(C(=O)N(C)C)c3C2)ccc1O` [compound 89], the “Mouse liver microsomes, MLM t½” value worked out at 17 min.

On to `CC(C)(C)Oc1cc(CCC(C)(C)N2Cc3ccc(S(C)(=O)=O)cc3C2)ccc1O` [compound 62], for which the “Mouse liver microsomes, MLM t½” value amounted to 45 min.

For the molecule `CN1CCN(C(=O)c2cccc3c2CN(C(C)(C)CCc2ccc(O)c(OC(F)(F)F)c2)C3)CC1` [compound 93], the “Mouse liver microsomes, MLM t½” value is on record as 5 min.

With `CC(C)Oc1cc(CC[C@@H](C)N2Cc3cccc(F)c3C2)ccc1O` [compound 26], the “Mouse liver microsomes, MLM t½” value was 4 min.

In the case of `COc1cc(CC[C@@H](C)N2Cc3cc4c(cc3C2)OCO4)ccc1OCCO` [compound 52], the “Mouse liver microsomes, MLM t½” value is recorded as 97 min.

For `C[C@H](CCc1ccc(O)c(OC(F)(F)F)c1)N1Cc2ccc(F)cc2C1` [compound 31], the “Mouse liver microsomes, MLM t½” value was determined as 6 min.

`CC(C)COc1cc(CCC(C)(C)N2Cc3cccc(C(=O)N4CCOCC4)c3C2)ccc1O` [compound 90]: the “Mouse liver microsomes, MLM t½” value came to 9 min.

Turning to `CN(C)C(=O)c1cccc2c1CN(C(C)(C)CCc1ccc(O)c(OC(F)(F)F)c1)C2` [compound 57], the “Mouse liver microsomes, MLM t½” value turned out to be 26 min.

As for `C[C@H](CCc1ccc(F)cc1)N1Cc2cc3c(cc2C1)OCO3` [compound 23], the “Mouse liver microsomes, MLM t½” value was found to be 5 min.

`COc1cc(CC[C@@H](C)N2Cc3cccc(F)c3C2)ccc1O` [compound 8]: the “Mouse liver microsomes, MLM t½” value was 16 min.

As to `C[C@H](CCc1ccc(F)cc1)N1Cc2cccc(F)c2C1` [compound 21], the “Mouse liver microsomes, MLM t½” value is listed as 7 min.

As to `CC(C)COc1cc(CCC(C)(C)N2Cc3ccc(S(C)(=O)=O)cc3C2)ccc1O` [compound 87], the “Mouse liver microsomes, MLM t½” value was found to be 86 min.

On to `C[C@H](CCc1ccc(Cl)c(Cl)c1)N1Cc2cc3c(cc2C1)OCO3` [compound 10], for which the “Mouse liver microsomes, MLM t½” value is recorded as 8 min.

`CC(C)(CCc1ccc(F)cc1)N1Cc2cc3c(cc2C1)OCO3` [compound 36]: the “Mouse liver microsomes, MLM t½” value came to 47 min.

For the molecule `CC(C)(C)Oc1cc(CCC(C)(C)N2Cc3c(F)ccc(F)c3C2)ccc1O` [compound 74], the “Mouse liver microsomes, MLM t½” value is given as 21 min.

With `COc1cc(CCC(C)(C)N2Cc3cccc(F)c3C2)ccc1OCCO` [compound 44], the “Mouse liver microsomes, MLM t½” value is 29 min.

Regarding `C[C@H](CCc1ccc(Cl)c(Cl)c1)N1Cc2cccc(Cl)c2C1.Cl` [compound 16], the “Mouse liver microsomes, MLM t½” value is listed as 12 min.

For the molecule `CC(C)COc1cc(CCC(C)(C)N2Cc3cccc(C(=O)N4CCN(C)CC4)c3C2)ccc1O` [compound 91], the “Mouse liver microsomes, MLM t½” value was 6 min.

For `CC(C)(CCc1ccc(F)cc1)N1Cc2cccc(F)c2C1` [compound 33], the “Mouse liver microsomes, MLM t½” value came out at 9 min.

Consider `CN(C)C(=O)c1cccc2c1CN(C(C)(C)CCc1ccc(O)c(OC(C)(C)C)c1)C2` [compound 59], for which the “Mouse liver microsomes, MLM t½” value is on record as 8 min.

On to `CC(C)(CCc1ccc(O)c(OC(F)(F)F)c1)N1Cc2cccc(F)c2C1` [compound 54], for which the “Mouse liver microsomes, MLM t½” value is 12 min.

Regarding `CC(C)Oc1cc(CC[C@@H](C)N2Cc3ccc(F)cc3C2)ccc1O` [compound 37], the “Mouse liver microsomes, MLM t½” value came out at 5 min.

Regarding `COc1cc(CCC(C)(C)N2Cc3cccc(F)c3C2)ccc1O` [compound 53], the “Mouse liver microsomes, MLM t½” value is listed as 21 min.

For `C[C@H](CCc1ccc(Cl)c(Cl)c1)N1Cc2ccc(F)cc2C1.Cl` [compound 12], the “Mouse liver microsomes, MLM t½” value is 13 min.

As for `COc1cc(CCC(C)(C)N2Cc3ccc(F)cc3C2)ccc1OCCO` [compound 45], the “Mouse liver microsomes, MLM t½” value turned out to be 96 min.

As for `CC(C)Oc1cc(CC[C@@H](C)N2Cc3cc4c(cc3C2)OCO4)ccc1O` [compound 25], the “Mouse liver microsomes, MLM t½” value is recorded as 4 min.

With `CC(=O)N1CCN(C(=O)c2cccc3c2CN(C(C)(C)CCc2ccc(O)c(OCC(C)C)c2)C3)CC1` [compound 92], the “Mouse liver microsomes, MLM t½” value is recorded as 7 min.

In the case of `COCCN(C)C(=O)c1cccc2c1CN(C(C)(C)CCc1ccc(O)c(OC)c1)C2` [compound 86], the “Mouse liver microsomes, MLM t½” value came to 19 min.

As for `COc1cc(CCC(C)(C)N2Cc3cccc(C(=O)NCCN(C)C)c3C2)ccc1O` [compound 78], the “Mouse liver microsomes, MLM t½” value is recorded as 450 min.

As for `CC(C)(CCc1ccc(O)c(OC(F)(F)F)c1)N1Cc2c(F)ccc(F)c2C1` [compound 55], the “Mouse liver microsomes, MLM t½” value came out at 34 min.

With `CC(C)(CCc1ccc(O)c(OC(F)(F)F)c1)N1Cc2cccc(C(=O)N3CCOCC3)c2C1` [compound 94], the “Mouse liver microsomes, MLM t½” value is 14 min.

With `CC(C)Oc1cc(CCC(C)(C)N2Cc3ccc(S(C)(=O)=O)cc3C2)ccc1O` [compound 70], the “Mouse liver microsomes, MLM t½” value was determined as 79 min.

Turning to `CC(C)Oc1cc(CCC(C)(C)N2Cc3cccc(F)c3C2)ccc1O` [compound 28], the “Mouse liver microsomes, MLM t½” value was 4 min.

The record behind these values is US10207991B2, “Isoindoline compositions and methods for treating neurodegenerative disease” (priority 2014, dated 2019).
